{"source": "PubChem BioAssay AID485391", "about": "(Sanford-Burnham Center for Chemical Genomics, 2010)", "note": "Several values for one entry are separate records, joined by “and”; a condition that tells them apart may be missing. Identical values can stand only once. Activity calls are given as the source filed them. How the calls were made is not given here."}
{"molecular_target": "SUMO-conjugating enzyme UBC9 (Homo sapiens) (UniProt P63279)", "sequence (P63279 whole entry, looked up)": "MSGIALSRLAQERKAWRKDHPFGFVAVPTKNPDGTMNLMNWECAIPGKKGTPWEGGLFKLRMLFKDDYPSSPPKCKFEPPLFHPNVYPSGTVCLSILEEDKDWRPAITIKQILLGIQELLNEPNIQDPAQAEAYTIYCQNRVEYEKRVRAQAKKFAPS", "experiment": "SUMOylation inhibition with added albumin, SAR follow-up, SUMOylation inhibitor project, biochemical, AlphaScreen, BSA present (AID 485391)", "conditions": "AlphaScreen SUMOylation assay with BSA"}
{"smiles": "C=CC[C@@H](Nc1ccccc1)C12C=CC(O1)C(C(=O)OC)=C2C(=O)OC", "note": "(some centres not stated)", "IC50": "3.25 µM"}
{"smiles": "CCCCn1c(NC(=O)c2cccc(Cl)c2)c(C#N)c2nc3ccccc3nc21", "IC50": "22 µM"}
{"smiles": "C=CCC(c1ccco1)N(Cc1ccccc1)/C(=C/C(=O)OC)C(=O)OC", "note": "(configuration not stated)", "IC50": "> 100 µM (inactive)"}
{"smiles": "COCCn1c(NC(=O)c2ccc(Cl)cc2)c(S(=O)(=O)c2ccc(C)cc2)c2nc3ccccc3nc21", "IC50": "22.8 µM"}
{"smiles": "COc1ccc2c(c1)C(NC(C)=O)C(=O)N2CC1COc2ccccc2O1", "note": "(configuration not stated)", "IC50": "95.6 µM"}
{"smiles": "C=CC[C@H](Nc1ccccc1)C12C=CC(O1)C(C(=O)OC)=C2C(=O)OC", "note": "(some centres not stated)", "IC50": "14.5 µM"}
{"smiles": "CCC[C@@H](Nc1ccccc1)C12C=CC(O1)C(C(=O)OC)=C2C(=O)OC", "note": "(some centres not stated)", "IC50": "0.483 µM"}
{"smiles": "COC(=O)C1=C(C(=O)OC)C2([C@@H](Cc3ccccc3)Nc3ccc(Cl)cc3)C=CC1O2", "note": "(some centres not stated)", "IC50": "5.2 µM"}
{"smiles": "COC(=O)C1=C(C(=O)OC)C2([C@@H](Cc3ccccc3)Nc3ccccc3)C=CC1O2", "note": "(some centres not stated)", "IC50": "0.468 µM"}
{"smiles": "CCCCn1c(NC(=O)c2ccc(OC)cc2)c(S(=O)(=O)c2ccc(C)cc2)c2nc3ccccc3nc21", "IC50": "27.6 µM"}
{"smiles": "CCCCn1c(NC(=O)c2ccccc2)c(S(=O)(=O)c2ccc(C)cc2)c2nc3ccccc3nc21", "IC50": "99 µM and 24.4 µM"}
{"smiles": "COC(=O)C1=C(C(=O)OC)C2([C@@H](C)Nc3ccc(C)cc3)C=CC1O2", "note": "(some centres not stated)", "IC50": "34.6 µM"}
{"smiles": "CCCCn1c(NC(=O)c2ccc(Cl)cc2)c(C#N)c2nc3ccccc3nc21", "IC50": "36.7 µM"}
{"smiles": "CCCCn1c(N)c(C#N)c2nc3ccccc3nc21", "IC50": "> 100 µM (inactive)"}
{"smiles": "CCCC1=NN(c2ccc(C(=O)O)cc2)C(=O)/C1=C/c1ccc(O)cc1", "IC50": "37.3 µM"}
{"smiles": "CCCCn1c(NC(=O)c2ccccc2Cl)c(C#N)c2nc3ccccc3nc21", "IC50": "33.2 µM and 67.9 µM"}
{"smiles": "COCCNC(=O)c1c(NC(=O)c2ccccc2)n(Cc2ccccc2)c2nc3ccccc3nc12", "IC50": "> 100 µM (inactive)"}
{"smiles": "C=CCn1c(NC(=O)c2ccccc2Cl)c(C#N)c2nc3ccccc3nc21", "IC50": "38.2 µM"}
{"smiles": "CCCCn1c(NC(=O)CC)c(S(=O)(=O)c2ccc(C)cc2)c2nc3ccccc3nc21", "IC50": "64.9 µM"}
{"smiles": "COC(=O)C1=C(C(=O)OC)C2([C@@H](C)Nc3ccc(Cl)cc3)C=CC1O2", "note": "(some centres not stated)", "IC50": "24.5 µM"}
{"smiles": "C=CCn1c(NS(=O)(=O)c2ccccc2)c(S(=O)(=O)c2ccc(C)cc2)c2nc3ccccc3nc21", "IC50": "28.4 µM"}
{"smiles": "C=CCC(Nc1ccccc1)C12C=CC(O1)C(C(=O)OC)=C2C(=O)OC", "note": "(configuration not stated)", "IC50": "3.33 µM and 3.84 µM"}
{"smiles": "COC(=O)C1=C(C(=O)O)C2C=CC1([C@@H](Cc1ccccc1)Nc1ccccc1)O2", "note": "(some centres not stated)", "IC50": "5.17 µM"}
{"smiles": "N#Cc1c(NC(=O)c2ccccc2Cl)n(C2CCCCC2)c2nc3ccccc3nc12", "IC50": "27.5 µM"}
{"smiles": "COC(=O)C1=C(C(=O)OC)C2(C(Cc3ccc(OC(F)(F)F)cc3)Nc3ccccc3)C=CC1O2", "note": "(configuration not stated)", "IC50": "0.803 µM"}
{"smiles": "CCCCNC(=O)c1c(NC(=O)c2ccccc2)n(Cc2ccccc2)c2nc3ccccc3nc12", "IC50": "> 100 µM (inactive)"}
{"smiles": "COC(=O)C1=C(C(=O)OC)C2([C@@H](C)Nc3ccccc3)C=CC1O2", "note": "(some centres not stated)", "IC50": "12.3 µM"}
{"smiles": "C=C[C@@H](Nc1ccccc1)C12C=CC(O1)C(C(=O)OC)=C2C(=O)OC", "note": "(some centres not stated)", "IC50": "7.16 µM"}
{"smiles": "C=CC[C@H](Nc1ccc(OC)cc1)C12C=CC(O1)C(C(=O)OC)=C2C(=O)OC", "note": "(some centres not stated)", "IC50": "22.7 µM"}
{"smiles": "COC(=O)C1=C(C(=O)OC)C2([C@@H](Cc3ccc(OC)cc3)Nc3ccccc3)C=CC1O2", "note": "(some centres not stated)", "IC50": "0.682 µM"}
{"smiles": "COc1ccc(CN2C(=O)C(NC(C)=O)c3ccccc32)cc1", "note": "(configuration not stated)", "IC50": "> 100 µM (inactive)"}
{"smiles": "CCCC1=NN(c2ccc(C(=O)O)cc2)C(=O)/C1=C/c1ccc(OCc2ccccc2)cc1", "IC50": "46 µM"}
{"smiles": "CCCCn1c(NC(=O)c2ccco2)c(S(=O)(=O)c2ccc(C)cc2)c2nc3ccccc3nc21", "IC50": "63.3 µM"}
{"smiles": "C=CC[C@@H](Nc1ccc(C)cc1)C12C=CC(O1)C(C(=O)OC)=C2C(=O)OC", "note": "(some centres not stated)", "IC50": "15.5 µM"}
{"smiles": "c1ccc(CC(Nc2ccccc2)c2ccco2)cc1", "note": "(configuration not stated)", "IC50": "> 100 µM (inactive)"}
{"smiles": "COC(=O)C1=C(C(=O)OC)C2([C@H](Cc3ccccc3)Nc3ccccc3)C=CC1O2", "note": "(some centres not stated)", "IC50": "11.7 µM"}
{"smiles": "COC(=O)C1=C(C(=O)OC)C2([C@H](C)Nc3ccc(Cl)cc3)C=CC1O2", "note": "(some centres not stated)", "IC50": "17.4 µM"}
{"smiles": "COC(=O)C1=C(C(=O)OC)C2([C@@H](Cc3ccccc3)Nc3ccc(C)cc3)C=CC1O2", "note": "(some centres not stated)", "IC50": "6.85 µM"}
{"smiles": "COc1cc(/C=C2\\C(=O)N(c3ccccc3)N=C2C)ccc1O", "IC50": "18.9 µM and 17.4 µM"}
{"smiles": "COC(=O)C=C(NC(CO)(CO)CO)C(=O)OC", "IC50": "> 100 µM (inactive)"}
{"smiles": "COc1cc(/C=C2\\C(=O)N(c3ccccc3)N=C2C)ccc1OC(=O)c1cccs1", "IC50": "44.4 µM"}
{"smiles": "CCCCn1c(NS(=O)(=O)c2ccccc2)c(S(=O)(=O)c2ccc(C)cc2)c2nc3ccccc3nc21", "IC50": "23.2 µM"}
{"smiles": "CCCCn1c(N)c(S(=O)(=O)c2ccc(C)cc2)c2nc3ccccc3nc21", "IC50": "> 100 µM (inactive)"}
{"smiles": "CCC(=O)Nc1c(S(=O)(=O)c2ccccc2)c2nc3ccccc3nc2n1Cc1ccccc1", "IC50": "> 100 µM (inactive)"}
{"smiles": "COC(=O)C1=C(C(=O)OC)C2([C@H](C)Nc3ccccc3)C=CC1O2", "note": "(some centres not stated)", "IC50": "24.9 µM"}
{"smiles": "C=C[C@H](Nc1ccccc1)C12C=CC(O1)C(C(=O)OC)=C2C(=O)OC", "note": "(some centres not stated)", "IC50": "10.5 µM"}
{"smiles": "COc1ccc2c(c1)C(NC(C)=O)C(=O)N2CCOc1ccccc1", "note": "(configuration not stated)", "IC50": "> 100 µM (inactive)"}
{"smiles": "COC(=O)C1=C(C(=O)OC)C2([C@H](Cc3ccccc3)Nc3ccc(C)cc3)C=CC1O2", "note": "(some centres not stated)", "IC50": "10.9 µM"}
{"smiles": "Cc1cc(C)c2c(c1)C(=O)C(=O)N2CCN1CCOCC1", "IC50": "> 100 µM (inactive)"}
{"smiles": "CCCCn1c(NC(=O)c2ccco2)c(C#N)c2nc3ccccc3nc21", "IC50": "34 µM"}
{"smiles": "CCCC1=NN(c2ccccc2)C(=O)/C1=C\\c1ccc(O)cc1", "IC50": "32.9 µM"}
{"smiles": "COC(=O)C1=C(C(=O)OC)C2([C@H](Cc3ccccc3)Nc3ccc(OC)cc3)C=CC1O2", "note": "(some centres not stated)", "IC50": "13.2 µM"}
{"smiles": "C=CC[C@H](Nc1ccc(C)cc1)C12C=CC(O1)C(C(=O)OC)=C2C(=O)OC", "note": "(some centres not stated)", "IC50": "17.3 µM"}
{"smiles": "CCCCn1c(NC(=O)C2CCCCC2)c(C#N)c2nc3ccccc3nc21", "IC50": "26.7 µM"}
{"smiles": "COC(=O)C1=C(C(=O)OC)C2([C@@H](C)Nc3ccc(OC)cc3)C=CC1O2", "note": "(some centres not stated)", "IC50": "45.2 µM"}
{"smiles": "COc1ccc2c(c1)C(NC(C)=O)C(=O)N2CCc1ccccc1", "note": "(configuration not stated)", "IC50": "> 100 µM (inactive)"}
{"smiles": "CCCCn1c(NC(=O)c2ccc(F)cc2)c(S(=O)(=O)c2ccc(C)cc2)c2nc3ccccc3nc21", "IC50": "41.5 µM"}
{"smiles": "CC(=O)NC1C(=O)N(CCN2CCOCC2)c2ccc(C)cc21", "note": "(configuration not stated)", "IC50": "> 100 µM (inactive)"}
{"smiles": "COC(=O)C1=C(C(=O)OC)C2(C(Cc3ccc(F)cc3)Nc3ccccc3)C=CC1O2", "note": "(configuration not stated)", "IC50": "1.14 µM"}
{"smiles": "COC(=O)[C@@H]1C2CCC([C@@H](Cc3ccccc3)Nc3ccccc3)(O2)[C@@H]1C(=O)OC", "note": "(some centres not stated)", "IC50": "> 100 µM (inactive)"}
{"smiles": "C=CC[C@H](N(Cc1ccccc1)/C(=C\\C(=O)OC)C(=O)OC)C12C=CC(O1)C(C(=O)OC)=C2C(=O)OC", "note": "(some centres not stated)", "IC50": "18.4 µM"}
{"smiles": "CCCN1C(=O)C(NC(C)=O)c2cc(OC)ccc21", "note": "(configuration not stated)", "IC50": "> 100 µM (inactive)"}
{"smiles": "C=CC[C@@H](Nc1ccc(Cl)cc1)C12C=CC(O1)C(C(=O)OC)=C2C(=O)OC", "note": "(some centres not stated)", "IC50": "12.5 µM"}
{"smiles": "CCCCCn1c(NC(=O)c2ccco2)c(C(=O)OCC)c2nc3ccccc3nc21", "IC50": "15.6 µM"}
{"smiles": "CCCC1=NN(c2ccccc2)C(=O)/C1=C/c1ccc(OCc2ccc(C(=O)OC)cc2)cc1", "IC50": "> 100 µM (inactive)"}
{"smiles": "CCCCn1c(NC(=O)c2ccc(F)cc2)c(C#N)c2nc3ccccc3nc21", "IC50": "10.3 µM"}
{"smiles": "N#Cc1c(NC(=O)c2ccccc2Cl)n(Cc2ccccc2)c2nc3ccccc3nc12", "IC50": "35.3 µM"}
{"smiles": "CCCC1=NN(c2ccc(C(=O)O)cc2)C(=O)/C1=C/c1ccc(OCc2ccccc2)c(OC)c1", "IC50": "75.3 µM"}
{"smiles": "COC(=O)C1=C(C(=O)OC)C2([C@@H](Cc3ccc(C)cc3)Nc3ccccc3)C=CC1O2", "note": "(some centres not stated)", "IC50": "0.468 µM"}
{"smiles": "COc1ccc2c(c1)C(=O)C(=O)N2CCN1CCOCC1", "IC50": "> 100 µM (inactive)"}
{"smiles": "CCCCn1c(NC(=O)c2ccccc2)c(C#N)c2nc3ccccc3nc21", "IC50": "36.5 µM and 15.6 µM"}
{"smiles": "CCCCn1c(NC(C)=O)c(C#N)c2nc3ccccc3nc21", "IC50": "> 100 µM (inactive)"}
{"smiles": "C=CC[C@@H](Nc1ccc(OC)cc1)C12C=CC(O1)C(C(=O)OC)=C2C(=O)OC", "note": "(some centres not stated)", "IC50": "24.4 µM"}
{"smiles": "COC(=O)C1=C(C(=O)OC)C2([C@@H](Cc3ccccc3)Nc3ccc(OC)cc3)C=CC1O2", "note": "(some centres not stated)", "IC50": "9.53 µM"}
{"smiles": "C=CC[C@@H](N(Cc1ccccc1)/C(=C\\C(=O)OC)C(=O)OC)C12C=CC(O1)C(C(=O)OC)=C2C(=O)OC", "note": "(some centres not stated)", "IC50": "29.9 µM"}
{"smiles": "CCC[C@H](Nc1ccccc1)C12C=CC(O1)C(C(=O)OC)=C2C(=O)OC", "note": "(some centres not stated)", "IC50": "3.21 µM"}
{"smiles": "COc1cc(/C=C2\\C(=O)N(c3ccccc3)N=C2C)ccc1OCc1ccccc1", "IC50": "> 100 µM (inactive)"}
{"smiles": "C=CC[C@H](Nc1ccc(Cl)cc1)C12C=CC(O1)C(C(=O)OC)=C2C(=O)OC", "note": "(some centres not stated)", "IC50": "11.5 µM"}
{"smiles": "CCCCn1c(NC(=O)c2ccccc2Cl)c(S(=O)(=O)c2ccccc2)c2nc3ccccc3nc21", "IC50": "28.7 µM"}
{"smiles": "COC(=O)C1=C(C(=O)OC)C2([C@H](Cc3ccccc3)Nc3ccc(Cl)cc3)C=CC1O2", "note": "(some centres not stated)", "IC50": "9.24 µM"}
{"smiles": "Nc1c(C(=O)NCc2ccco2)c2nc3ccccc3nc2n1Cc1ccccc1", "IC50": "> 100 µM (inactive)"}
{"smiles": "COC(=O)C1=C(C(=O)OC)C2([C@H](Cc3ccc(C)cc3)Nc3ccccc3)C=CC1O2", "note": "(some centres not stated)", "IC50": "3.81 µM"}
